From patent US8148392B2, “2-indolyl imidazo [4,5-d] phenanthroline derivatives and their use in the treatment of cancer” (Lorus Therapeutics Inc., priority 2005, dated 2012) come the findings set out here.

Where two headings read alike, the source gives them in different places.

As a reminder, the IC50 is the concentration at which inhibition is half-maximal. By GI50 is commonly meant the concentration that inhibits growth by half.

Series [1] relates to human colon carcinoma HT-29 cells. Description: XTT cell proliferation assay, HT-29. It counts as cell-based. The following applies: Homo sapiens, HT-29, XTT, read-out: IC50. The gist of the method: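 HT-29 cells in McCoy's 5A with 10% FBS, 37° C., 5% CO2, exposed to varying compound concentrations for 6-7 days. Viable cells quantified by XTT reduction to formazan; growth inhibition expressed as IC50 (μM).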
(Formazan colour is commonly taken as a measure of viable cells.)

Another series is described as follows: Solubility in water. It counts as physicochemical. The following applies: HCl salt of compound 2. On the procedure: A solution of 0.200 g of compound 2 (0.483 mmol) in DMF was treated with HCL(g) until no more precipitation was observed. The solid was then filtered, washed with dichloromethane and hexanes, dried in vacuum.
Series [2] deals with panel of 60 human cancer cell lines. Description: NCI DTP in vitro anticancer screen, panel of 60 human cancer cell lines. It counts as cell-based. The following applies: average over human tumour cell lines of the NCI panel (FIG. 1); read-out: average GI50 (growth inhibition by 50%). As for the experimental part: For example, the following methodology, which is currently employed by the NCI, can be used to assess the GI50 of a candidate compound of Formula I in the selected cancer cell lines. Briefly, cell suspensions are diluted (5000-40,000 cells per well) and 100 μL of the diluted cell suspension is added into 96-well microtiter plates. Inoculates are allowed a preincubation period of 24 h at 37° C. for stabilization. Dilutions at twice the intended test concentration of the candidate compound are added at time zero in 100 μL aliquots to the microtiter plate wells. Test compounds are generally evaluated at five 10-fold dilutions. In routine testing, the highest well concentration is usually 10E-4 M, but this may be adjusted depending on the compound being tested. The cells are incubated with the test compound for 48 h in 5% CO2 atmosphere and 100% humidity. The cells are then assayed by using the sulforhodamine B assay (see, for example, Skehan, P., et al. (1990) JNCI, J. Natl. Cancer Inst. 82, 1107-1112; and Chen, S. F., et al. (1990) Proc. Am. Assoc. Cancer Res. 31, A2644) employing a plate reader which can be used to read the optical densities.
Compounds 2 and 3 were evaluated for their antiproliferative effects in a panel of 60 human cancer cell lines as part of the in vitro anticancer screening services provided by the DTP (Developmental Therapeutics Program) of the US National Cancer Institute (NCI).
Analysis of the effects of compounds of Formula I on in vitro and in vivo cell growth inhibition were performed utilizing the methods as described in the preceding Examples. As shown in Example 12, cell growth inhibition by the parental compound 3 was screened by National Cancer Institute 60-cell line assay and leukemia, non-small cell cancer, colon cancer, renal cancer and prostate cancer panels were especially sensitive to compound 3.

Take `Brc1ccc2[nH]cc(-c3nc4c5cccnc5c5ncccc5c4[nH]3)c2c1` [Compound 2]: the IC50 in series [1] (6-7 days, Table 3) amounted to 0.7 µM; in series [1] (as Example 13, Table 7) it was 1.5 µg/mL. Also, the solubility in water entry in “Solubility in water” is listed as “soluble in water”. Further, the GI50 in series [2] was less than 2 µM.
